Data reported in ChEMBL document CHEMBL1122784, “Antitumor imidazotetrazines. 1. Synthesis and chemistry of 8-carbamoyl-3-(2-chloroethyl)imidazo[5,1-d]-1,2,3,5-tetrazin-4(3 H)-one , a novel broad-spectrum antitumor agent” (J Med Chem, 1984).

Legend:
[1] = tested on: Mus musculus; experiment: Compound was evaluated for %T/C in L1210 leukemia implanted BDF1 mice on day 0 after ip administration of 10 mg/kg/day on day 1; assay type: functional; details: route intraperitoneal
[2] = tested on: Mus musculus; experiment: Compound was tested for mortality in L1210 leukemia implanted BDF1 mice on day 0 after ip administration of 10 mg/kg/day on day 1 out of 5 mice; assay type: functional; details: route intraperitoneal
[3] = tested on: Mus musculus; experiment: Compound was evaluated for number of survivors in L1210 leukemia implanted BDF1 mice on day 0 after ip administration of 3.12 mg/kg/day on day 60 out of 6 mice; assay type: functional; details: route intraperitoneal
[4] = tested on: Mus musculus; experiment: (§1) Compound was evaluated for number of survivors in L1210 leukemia implanted BDF1 mice on day 0 after ip administration of 20 mg/kg/day on day 60 out of 5 mice; assay type: functional; details: route intraperitoneal
[5] = tested on: Mus musculus; experiment: Compound was evaluated for number of survivors in L1210 leukemia implanted BDF1 mice on day 0 after ip administration of 25 mg/kg/day on day 60 out of 6 mice; assay type: functional; details: route intraperitoneal
[6] = tested on: Mus musculus; experiment: Compound was evaluated for %T/C in P388 leukemia implanted BDF1 mice on day 0 after ip administration of 12.5 mg/kg/day on day 1-5; assay type: functional; details: route intraperitoneal
[7] = tested on: Mus musculus; experiment: Compound was evaluated for %T/C in P388 leukemia implanted BDF1 mice on day 0 after ip administration of 10 mg/kg/day on day 1; assay type: functional; details: route intraperitoneal
[8] = tested on: Mus musculus; experiment: Compound was tested for mortality in L1210 leukemia implanted BDF1 mice on day 0 after ip administration of 7.5 mg/kg/day on day 1-5 out of 5 mice; assay type: functional; details: route intraperitoneal
[9] = tested on: Mus musculus; experiment: Compound was tested for mortality in L1210 leukemia implanted BDF1 mice on day 0 after ip administration of 2.5 mg/kg/day on day 1-5 out of 5 mice; assay type: functional; details: route intraperitoneal
[10] = tested on: Mus musculus; experiment: Compound was tested for mortality in P388 leukemia implanted BDF1 mice on day 0 after ip administration of 80 mg/kg/day on day 1 out of 5 mice; assay type: functional; details: route intraperitoneal
[11] = tested on: Mus musculus; experiment: Compound was tested for mortality in L1210 leukemia implanted BDF1 mice on day 0 after ip administration of 5 mg/kg/day on day 1 out of 5 mice; assay type: functional; details: route intraperitoneal
[12] = tested on: Mus musculus; experiment: Compound was tested for mortality in P388 leukemia implanted BDF1 mice on day 0 after ip administration of 20 mg/kg/day on day 1 out of 5 mice; assay type: functional; details: route intraperitoneal
[13] = Half-life period in 95% ethanol in dark at 28 degrees celsius.; assay type: ADME
[14] = tested on: Mus musculus; experiment: Compound was evaluated for number of survivors in L1210 leukemia implanted BDF1 mice on day 0 after ip administration of 12.5 mg/kg/day on day 60 out of 6 mice; assay type: functional; details: route intraperitoneal
[15] = tested on: Mus musculus; experiment: Compound was tested for mortality in P388 leukemia implanted BDF1 mice on day 0 after ip administration of 5 mg/kg/day on day 1 out of 5 mice; assay type: functional; details: route intraperitoneal
[16] = tested on: Mus musculus; experiment: Compound was evaluated for number of survivors in L1210 leukemia implanted BDF1 mice on day 0 after ip administration of 5 mg/kg/day on day 60 out of 5 mice; assay type: functional; details: route intraperitoneal
[17] = tested on: Mus musculus; experiment: Compound was evaluated for %T/C in P388 leukemia implanted BDF1 mice on day 0 after ip administration of 80 mg/kg/day on day 1; assay type: functional; details: route intraperitoneal
[18] = tested on: Mus musculus; experiment: as §1; assay type: functional; details: route intraperitoneal; remark: listed apart in the source
[19] = tested on: Mus musculus; experiment: Compound was tested for mortality in P388 leukemia implanted BDF1 mice on day 0 after ip administration of 40 mg/kg/day on day 1 out of 5 mice; assay type: functional; details: route intraperitoneal
[20] = tested on: Mus musculus; experiment: Compound was evaluated for %T/C in L1210 leukemia implanted BDF1 mice on day 0 after ip administration of 5 mg/kg/day on day 1; assay type: functional; details: route intraperitoneal
[21] = tested on: Mus musculus; experiment: Compound was tested for mortality in L1210 leukemia implanted BDF1 mice on day 0 after ip administration of 25 mg/kg/day on day 1-9 out of 6 mice; assay type: functional; details: route intraperitoneal
[22] = tested on: Mus musculus; experiment: Compound was evaluated for number of survivors in L1210 leukemia implanted BDF1 mice on day 0 after ip administration of 40 mg/kg/day on day 60 out of 5 mice; assay type: functional; details: route intraperitoneal
[23] = tested on: Mus musculus; experiment: Compound was evaluated for %T/C in L1210 leukemia implanted BDF1 mice on day 0 after ip administration of 20 mg/kg/day on day 1; assay type: functional; details: route intraperitoneal
[24] = tested on: Mus musculus; experiment: Compound was evaluated for %T/C in P388 leukemia implanted BDF1 mice on day 0 after ip administration of 20 mg/kg/day on day 1; assay type: functional; details: route intraperitoneal
[25] = tested on: Mus musculus; experiment: Compound was tested for mortality in P388 leukemia implanted BDF1 mice on day 0 after ip administration of 25 mg/kg/day on day 1-5 out of 6 mice; assay type: functional; details: route intraperitoneal
[26] = tested on: Mus musculus; experiment: Compound was evaluated for %T/C in P388 leukemia implanted BDF1 mice on day 0 after ip administration of 25 mg/kg/day on day 1-5; assay type: functional; details: route intraperitoneal
[27] = tested on: Mus musculus; experiment: (§2) Compound was evaluated for number of survivors in P388 leukemia implanted BDF1 mice on day 0 after ip administration of 20 mg/kg/day on day 60 out of 5 mice; assay type: functional; details: route intraperitoneal
[28] = tested on: Mus musculus; experiment: Compound was evaluated for number of survivors in P388 leukemia implanted BDF1 mice on day 0 after ip administration of 25 mg/kg/day on day 60 out of 6 mice; assay type: functional; details: route intraperitoneal
[29] = tested on: Mus musculus; experiment: Compound was tested for mortality in L1210 leukemia implanted BDF1 mice on day 0 after ip administration of 20 mg/kg/day on days 1-5 out of 5 mice; assay type: functional; details: route intraperitoneal
[30] = tested on: Mus musculus; experiment: Compound was tested for mortality in L1210 leukemia implanted BDF1 mice on day 0 after ip administration of 6.25 mg/kg/day on day 1-9 out of 6 mice; assay type: functional; details: route intraperitoneal
[31] = tested on: Mus musculus; experiment: as §2; assay type: functional; details: route intraperitoneal; remark: listed apart in the source
[32] = tested on: Mus musculus; experiment: Compound was tested for mortality in L1210 leukemia implanted BDF1 mice on day 0 after ip administration of 50 mg/kg/day on day 1-9 out of 6 mice; assay type: functional; details: route intraperitoneal
[33] = tested on: Mus musculus; experiment: Compound was tested for mortality in P388 leukemia implanted BDF1 mice on day 0 after ip administration of 10 mg/kg/day on day 1-5 out of 5 mice; assay type: functional; details: route intraperitoneal
[34] = tested on: Mus musculus; experiment: Compound was evaluated for number of survivors in P388 leukemia implanted BDF1 mice on day 0 after ip administration of 2.5 mg/kg/day on day 60 out of 5 mice; assay type: functional; details: route intraperitoneal
[35] = tested on: Mus musculus; experiment: Compound was evaluated for %T/C in L1210 leukemia implanted BDF1 mice on day 0 after ip administration of 25 mg/kg/day on day 1-9; assay type: functional; details: route intraperitoneal
[36] = tested on: Mus musculus; experiment: Compound was tested for mortality in L1210 leukemia implanted BDF1 mice on day 0 after ip administration of 80 mg/kg/day on day 1 out of 5 mice; assay type: functional; details: route intraperitoneal
[37] = tested on: Mus musculus; experiment: Compound was tested for mortality in P388 leukemia implanted BDF1 mice on day 0 after ip administration of 2.5 mg/kg/day on day 1-5 out of 5 mice; assay type: functional; details: route intraperitoneal
[38] = tested on: Mus musculus; experiment: Compound was evaluated for %T/C in P388 leukemia implanted BDF1 mice on day 0 after ip administration of 5 mg/kg/day on day 1; assay type: functional; details: route intraperitoneal
[39] = tested on: Mus musculus; experiment: Compound was evaluated for %T/C in L1210 leukemia implanted BDF1 mice on day 0 after ip administration of 5 mg/kg/day on day 1-5; assay type: functional; details: route intraperitoneal
[40] = tested on: Mus musculus; experiment: Compound was evaluated for %T/C in P388 leukemia implanted BDF1 mice on day 0 after ip administration of 10 mg/kg/day on day 1-5; assay type: functional; details: route intraperitoneal
[41] = tested on: Mus musculus; experiment: Compound was evaluated for %T/C in P388 leukemia implanted BDF1 mice on day 0 after ip administration of 2.5 mg/kg/day on day 1-5; assay type: functional; details: route intraperitoneal

NC(=O)c1ncn2c(=O)n(CCCl)nnc12 [MITOZOLOMIDE]
T/C [1]: 131% | Mortality [2]: 0 | Survivors [3]: 0 | Survivors [4]: 5 | Survivors [5]: 6 | T/C [6]: 275% | T/C [7]: 164% | Mortality [8]: 0 | Mortality [9]: 0 | Mortality [10]: 0 | Mortality [11]: 0 | Mortality [12]: 0 | half-life [13]: 1.2 h | Survivors [14]: 6 | Mortality [15]: 0 | Survivors [16]: 0 | T/C [17]: 74% | Survivors [18]: 1 | Mortality [19]: 0 | T/C [20]: 111% | Mortality [21]: 0 | Survivors [22]: 5 | T/C [23]: 198% | T/C [24]: >600% | Mortality [25]: 0 | T/C [26]: 387% | Survivors [27]: 5 | Survivors [28]: 4 | Mortality [29]: 0 | Mortality [30]: 0 | Survivors [31]: 5 | Mortality [32]: 0 | Mortality [33]: 0 | Survivors [34]: 0 | T/C [35]: >745% | Mortality [36]: 0 | Mortality [37]: 0 | T/C [38]: 132% | T/C [39]: 139% | T/C [40]: >555% | T/C [41]: 148%
